Results on one compound are retold here after patent US20230116972A1, “CD38 MODULATORS AND METHODS OF USE THEREOF” (Cytokinetics, Inc., priority 2021, published 2023).

Data set [1] has as its system nicotinamide levels in mouse tissues. As to the kind of experiment: tissue levels of nicotinamide in aged C57BL/6 mice after oral administration. It is filed as in vivo. The settings on record: 100 mg/kg BID oral, 72-week-old male C57BL/6J mice, 4 h after the 3rd administration, vs vehicle, FIG. 1. As to the method: 0.1% Tween 80/0.5% HPMC or compound 148 prepared with 0.1% Tween 80/0.5% HPMC was orally administered at 100 mg/kg BID to 72-week-old male C57BL/6J mice. 4 h after the 3rd administration, each mouse was euthanized, and tissues collected.
Whole blood was collected and placed into pre-chilled K2EDTA microtainer tube, rotated 3-4 times to ensure anticoagulant mixing. An aliquot from the whole blood collection was added to 10 volumes of 0.5M PCA (perchloric acid), inverted 3-4 times to mix well, and then frozen on dry ice. While under isoflurane after cardiac puncture for blood collection, the following tissues were harvested in this order: heart, liver lobe, then by brain. All tissues were processed using pre-chilled freeze clamp. The frozen tissues were placed in pre-frozen labeled 2 mL Eppendorf tubes. The tissues were stored at −80° C. until processing. Upon processing, each tissue was cryomilled in the frozen state to form a powder. Frozen powdered tissue was weighed into pre-frozen tubes. Approximately 10 volumes of 0.5M PCA per weight of tissue were added to the tube followed by freezing until analysis. Upon analysis, blood and tissue samples were thawed on ice, followed by homogenization via TissueLyzer. Samples were centrifuged, the supernatant was collected and filtered, and the nicotinamide concentration in the supernatant of sample was measured using LC/MS.

Another data set addresses T1, CYP2C19 (Homo sapiens, UniProt P33261).
T1 construct: from tissue; host or cells: human liver microsomes (pooled in the time-dependent assay)
Put plainly: time dependent inhibition of CYP450 in pooled human microsomes. It is filed as in vitro ADME. The method, then: (§1) Time dependent inhibition: An assessment of the time-dependent Inhibitory potential of test compounds against the principal human cytochrome P450 isozymes was carried out using standard methods (Grimm et al, “The Conduct of in Vitro Studies to Address Time-Dependent Inhibition of Drug-Metabolizing Enzymes: A Perspective of the Pharmaceutical Research and Manufacturers of America”, Drug Metabolism and Disposition, 37 (7): 1355, 2009). […] Each compound was pre-incubated at 37° C. plus and minus NADPH for 30 min, and with 0 min pre-incubation for assessment of potential time dependent inhibition. LC-MS/MS was used to quantify metabolite formation. […] Note that, in Tables 8 and 9, the “Compound No” corresponds to the compound numbers in Table 1.

The next data set has as its target T2, CYP2C8 (Homo sapiens, UniProt P10632).
T2 construct: Pooled human microsomes and selective CYP probe substrates were used; from tissue; host or cells: pooled human (hepatic) microsomes
T2 sequence (P10632 1-490): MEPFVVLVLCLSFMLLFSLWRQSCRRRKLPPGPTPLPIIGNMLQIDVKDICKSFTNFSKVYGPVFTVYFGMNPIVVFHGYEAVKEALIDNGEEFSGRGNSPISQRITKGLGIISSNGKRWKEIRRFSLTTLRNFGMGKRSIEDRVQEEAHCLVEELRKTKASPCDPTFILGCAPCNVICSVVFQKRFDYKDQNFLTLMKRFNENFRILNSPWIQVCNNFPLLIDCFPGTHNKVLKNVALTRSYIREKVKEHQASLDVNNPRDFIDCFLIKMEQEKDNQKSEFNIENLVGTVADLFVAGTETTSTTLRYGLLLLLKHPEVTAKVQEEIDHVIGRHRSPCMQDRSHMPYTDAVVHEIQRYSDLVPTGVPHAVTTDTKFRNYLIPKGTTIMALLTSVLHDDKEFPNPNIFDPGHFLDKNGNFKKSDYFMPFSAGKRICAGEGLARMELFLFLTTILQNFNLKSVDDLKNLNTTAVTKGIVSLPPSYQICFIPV
The data set is described as above. It is filed as in vitro ADME. As to the method:
as §1

The target of another data set is T3, CYP2D6 (Homo sapiens, UniProt P10635).
T3 construct: from tissue; host or cells: human liver microsomes (pooled in the time-dependent assay)
T3 sequence (P10635 whole entry): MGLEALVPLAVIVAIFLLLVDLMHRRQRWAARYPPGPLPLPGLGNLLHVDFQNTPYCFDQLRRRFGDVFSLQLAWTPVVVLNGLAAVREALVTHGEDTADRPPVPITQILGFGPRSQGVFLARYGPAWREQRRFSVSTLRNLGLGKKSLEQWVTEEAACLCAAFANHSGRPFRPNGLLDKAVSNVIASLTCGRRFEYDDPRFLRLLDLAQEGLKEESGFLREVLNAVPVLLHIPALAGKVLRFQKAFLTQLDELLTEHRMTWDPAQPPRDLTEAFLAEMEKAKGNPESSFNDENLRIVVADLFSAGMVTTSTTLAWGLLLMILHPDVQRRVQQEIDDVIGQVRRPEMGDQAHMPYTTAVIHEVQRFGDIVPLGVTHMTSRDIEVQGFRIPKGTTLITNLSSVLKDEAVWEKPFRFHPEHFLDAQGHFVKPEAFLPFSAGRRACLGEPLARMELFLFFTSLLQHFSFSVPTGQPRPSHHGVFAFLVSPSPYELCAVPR
Described as above. It is filed as in vitro ADME. As to the method: as §1

The target of another data set is T4, CYP3A4 (Homo sapiens, UniProt P08684).
T4 construct: from tissue; host or cells: human liver microsomes (pooled in the time-dependent assay)
T4 sequence (P08684 whole entry): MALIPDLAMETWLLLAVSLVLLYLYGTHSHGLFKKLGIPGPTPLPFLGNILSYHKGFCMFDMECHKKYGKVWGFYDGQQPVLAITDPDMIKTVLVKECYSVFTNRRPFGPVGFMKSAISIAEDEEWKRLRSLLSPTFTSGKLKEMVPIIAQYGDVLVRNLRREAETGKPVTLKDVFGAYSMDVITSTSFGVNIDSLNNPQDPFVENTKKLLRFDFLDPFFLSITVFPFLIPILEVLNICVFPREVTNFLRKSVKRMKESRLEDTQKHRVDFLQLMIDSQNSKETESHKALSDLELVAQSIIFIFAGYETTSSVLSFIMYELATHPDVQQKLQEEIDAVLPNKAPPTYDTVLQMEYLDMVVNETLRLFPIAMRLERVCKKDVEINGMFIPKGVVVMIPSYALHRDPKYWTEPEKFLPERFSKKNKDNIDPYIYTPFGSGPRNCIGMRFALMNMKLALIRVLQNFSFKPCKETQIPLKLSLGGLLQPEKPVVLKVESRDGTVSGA
The description is as above. It is filed as in vitro ADME. As to the method:
as §1

The mark [2] stands for this setting: between 30 min pre-incubation plus NADPH and 0 min.
[3] abbreviates: pre-incubation 30 min (NO NADPH).

Like-named read-outs stand apart in the source and are kept apart here. Where only a bound is given, the exact number is not on record here.

T1 sequence (P33261 whole entry): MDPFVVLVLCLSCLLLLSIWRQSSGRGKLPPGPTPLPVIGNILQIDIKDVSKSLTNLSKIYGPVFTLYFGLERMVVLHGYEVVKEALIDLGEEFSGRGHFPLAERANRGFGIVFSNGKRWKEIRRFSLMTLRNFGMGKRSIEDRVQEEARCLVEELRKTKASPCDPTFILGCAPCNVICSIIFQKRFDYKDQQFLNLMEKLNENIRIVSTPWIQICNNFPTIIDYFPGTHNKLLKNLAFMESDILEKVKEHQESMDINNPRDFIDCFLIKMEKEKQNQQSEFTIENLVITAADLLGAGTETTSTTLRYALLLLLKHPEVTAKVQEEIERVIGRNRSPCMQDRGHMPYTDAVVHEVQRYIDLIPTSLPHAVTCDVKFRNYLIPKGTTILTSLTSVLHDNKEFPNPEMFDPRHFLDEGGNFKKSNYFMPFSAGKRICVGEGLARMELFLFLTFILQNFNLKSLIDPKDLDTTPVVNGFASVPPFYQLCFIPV

`CO[C@H]1CC[C@H](NC(=O)c2nccc(-c3cncn3C)n2)CC1` [Compound 148, N-((1r,4r)-4-methoxycyclohexyl)-4-(1-methyl-1H-imidazol-5-yl)pyrimidine-2-carboxamide]: in data set [1] (blood), the “nicotinamide levels in blood” value is on record as “decreased”. In addition, the “nicotinamide levels in brain” value in data set [1] (brain) is “decreased”. Besides, the “nicotinamide levels in heart” value in data set [1] (heart) is “decreased”. Also, the “nicotinamide levels in liver” value in data set [1] (liver) is given as “decreased”. The “CYP2C19 IC50 fold shift” value at CYP2C19 (setting [2]) was “none”. Besides, the IC50 against CYP2C19 (pre-incubation 0 min), against CYP2C19 (pre-incubation 30 min (NADPH)), against CYP2C19 (setting [3]), against CYP2C8 (pre-incubation 0 min), against CYP2C8 (pre-incubation 30 min (NADPH)) and on CYP2C8 (setting [3]) was greater than 30 µM each time. For the same compound, the IC50 on CYP2D6 (0 min pre-incubation, pooled human microsomes, read-out: IC50 CYP2D6 (reversible inhibition)) is 13.7 µM; at CYP2D6 (pre-incubation 30 min (NADPH), read-out: CYP2D6 IC50) it was 12.3 µM; at CYP2D6 (pre-incubation 30 min (NO NADPH), read-out: CYP2D6 IC50), 9.1 µM; at CYP3A4 (pre-incubation 0 min, read-out: CYP3A4-M IC50), greater than 30 µM; at CYP3A4 (pre-incubation 0 min, read-out: CYP3A4-T IC50), greater than 30 µM; on CYP3A4 (pre-incubation 30 min (NADPH), read-out: CYP3A4-M IC50) it was greater than 30 µM. Further, the IC50 on CYP3A4 (pre-incubation 30 min (NADPH), read-out: CYP3A4-T IC50) was greater than 30 µM; at CYP3A4 (pre-incubation 30 min (NO NADPH), read-out: CYP3A4-M IC50) it was greater than 30 µM; on CYP3A4 (pre-incubation 30 min (NO NADPH), read-out: CYP3A4-T IC50), greater than 30 µM. Moreover, the “CYP2C8 IC50 fold shift” value at CYP2C8 (setting [2]) is recorded as “none”. In addition, the “CYP2D6 IC50 fold shift” value on CYP2D6 (setting [2]) was found to be 1.1. The “CYP3A4-M IC50 fold shift” value at CYP3A4 (setting [2]) is on record as “none”. The “CYP3A4-T IC50 fold shift” value at CYP3A4 (setting [2]) is “none”.

As usually defined, the IC50 is the concentration needed to halve the response being measured.
